≈ marks a conversion by molar mass, not a printed value. Calls of active or inactive are those of the source. No cut-off for these calls is given here.
Experiments:
Rattus norvegicus [1] = test: Ex vivo inhibition of HSP90 in Sprague-Dawley rat assessed as up regulation of HSP70 expression in retina at 10 mg/kg, iv administered for 2 consecutive days and measured 24 hrs post last dose by immunohistochemistry analysis; assay type: functional, organism-based; settings: time 3.0 day
[2] = Ocular toxicity in Sprague-Dawley rat retina damage model assessed as induction of retinal cell death at 10 mg/kg, iv administered for 2 consecutive days by TUNEL staining based analysis; assay type: organism-based; settings: in vivo, 48 h, time 2 day
Rattus norvegicus [3] = test: Ex vivo inhibition of HSP90 in Sprague-Dawley rat assessed as up regulation of HSP70 expression in retina at 10 mg/kg, iv administered for 2 consecutive days and measured 24 hrs post last dose by Western blot analysis; assay type: functional, organism-based
U2OS = test: Antiproliferative activity against human U2OS assessed as reduction in cell viability incubated for 72 hrs by MTT assay; assay type: functional, cell-based
MCF7 = test: cells; settings: Homo sapiens, MCF7, 72 h
[4] = Oral bioavailability in rat at 50 mg/kg measured upto 24 hrs by LC-MS/MS analysis; assay type: ADME, organism-based; settings: in vivo
[5] = AUC (0 to t) in rat at 50 mg/kg, po measured upto 24 hrs by LC-MS/MS analysis; assay type: ADME, organism-based; parameters: route oral, dose 50 mg/kg, time <=24; settings: in vivo
L02 = test: Cytotoxicity against human L02 cells assessed as reduction in cell viability incubated for 72 hrs by MTT assay; assay type: cell-based; settings: L02, 72 h
CYP2C9 = CYP2C9 (Homo sapiens, UniProt P11712); test: Inhibition of CYP2C9 in human liver microsomes at 10 uM using diclofenac as substrate preincubated for 5 mins followed by NADPH addition and measured after 20 mins by LC-MS/MS analysis relative to control; assay type: ADME; settings: probe diclofenac, time 25 min
MDA-MB-468 = test: Antiproliferative activity against human MDA-MB-468 assessed as reduction in cell viability incubated for 72 hrs by MTT assay; assay type: functional, cell-based; settings: MDA-MB-468, 72 h
[6] = Apparent volume of distribution in rat at 10 mg/kg, iv measured upto 24 hrs by LC-MS/MS analysis; assay type: ADME, organism-based; settings: in vivo, read-out: Vz
MDA-MB-231 = test: Antiproliferative activity against human MDA-MB-231 assessed as reduction in cell viability incubated for 72 hrs by MTT assay; assay type: functional, cell-based; settings: MDA-MB-231, 72 h
CYP1A2 = CYP1A2 (Homo sapiens, UniProt P05177); test: Inhibition of CYP1A2 in human liver microsomes at 10 uM using phenacetin as substrate preincubated for 5 mins followed by NADPH addition and measured after 20 mins by LC-MS/MS analysis relative to control; assay type: ADME; settings: probe phenacetin, time 25 min
[7] = Apparent volume of distribution in rat at 50 mg/kg, po measured upto 24 hrs by LC-MS/MS analysis; assay type: ADME, organism-based; settings: in vivo
T47D = test: Antiproliferative activity against human T47D assessed as reduction in cell viability incubated for 72 hrs by MTT assay; assay type: functional, cell-based
A549 = test: Antiproliferative activity against human A549 assessed as reduction in cell viability incubated for 72 hrs by MTT assay; assay type: functional, cell-based; settings: A549, 72 h
[8] = Permeability of the compound at pH 7.4 by PAMPA; assay type: ADME; settings: read-out: permeability
[9] = Drug concentration in tumor of mouse xenografted with human HCT-116 cells at 60 mg/kg, iv measured at 48 hrs by LC-MS/MS analysis; settings: in vivo
[10] = Intrinsic clearance in human liver microsomes at 1 uM preincubated for 5 mins followed by NADPH addition and measured up to 120 mins by LC-MS/MS analysis; assay type: ADME, Microsome; settings: 2 h, time <=125 min
[11] = Half-life in rat at 50 mg/kg, po measured upto 24 hrs by LC-MS/MS analysis; assay type: ADME, organism-based; settings: in vivo
[12] = Drug distribution in liver of mouse xenografted with human HCT-116 cells at 60 mg/kg, iv by LC-MS/MS analysis; settings: in vivo
HCT-116 = test: cells; settings: Homo sapiens, HCT-116, 72 h
Description: Antiproliferative activity against human HCT-116 cells assessed as reduction in cell viability incubated for 72 hrs by MTT assay

[13] = Ocular toxicity in Sprague-Dawley rat retina damage model assessed as induction of retinal cell death at 20 mg/kg, iv administered for 2 consecutive days by TUNEL staining based analysis; assay type: organism-based; settings: in vivo, 48 h, time 2 day
[14] = Tmax in rat at 50 mg/kg, po measured upto 24 hrs by LC-MS/MS analysis; assay type: ADME, organism-based; settings: in vivo
[15] = Cmax in rat at 50 mg/kg, po measured upto 24 hrs by LC-MS/MS analysis; assay type: ADME, organism-based; parameters: route oral, dose 50 mg/kg, time <=24; settings: in vivo
[16] = Drug distribution in blood of mouse xenografted with human HCT-116 cells at 60 mg/kg, iv by LC-MS/MS analysis; settings: in vivo
CYP3A4 = CYP3A4 (Homo sapiens, UniProt P08684); test: Inhibition of CYP3A4 in human liver microsomes at 10 uM using midazolam as substrate preincubated for 5 mins followed by NADPH addition and measured after 20 mins by LC-MS/MS analysis relative to control; assay type: ADME; settings: probe midazolam, time 25 min
MV4-11 = test: Antiproliferative activity against human MV4-11 assessed as reduction in cell viability incubated for 72 hrs by MTT assay; assay type: functional, cell-based; settings: MV4-11, 72 h
CYP2D6 = CYP2D6 (Homo sapiens, UniProt P10635); test: Inhibition of CYP2D6 in human liver microsomes at 10 uM using dextromethorphan as substrate preincubated for 5 mins followed by NADPH addition and measured after 20 mins by LC-MS/MS analysis relative to control; assay type: ADME; settings: probe dextromethorphan, time 25 min
[17] = Metabolic stability in human liver microsomes assessed as parent compound remaining at 1 uM preincubated for 5 mins followed by NADPH addition and measured up to 120 mins by LC-MS/MS analysis; assay type: ADME, Microsome; settings: 2 h, time <=125 min
SK-BR-3 = test: Antiproliferative activity against human SK-BR-3 assessed as reduction in cell viability incubated for 72 hrs by MTT assay; assay type: functional, cell-based; settings: SK-BR-3, 72 h
[18] = target: Heat shock protein HSP 90-alpha (Homo sapiens, UniProt P07900); test: Displacement of FITC-geldanamycin from N-terminal HSP90alpha (unknown origin) after 30 mins by fluorescence polarization competitive binding assay
[19] = Distribution coefficient, logD of compound at pH 7.4; assay type: physicochemical; settings: octanol/water
[20] = Half life in human liver microsomes at 1 uM preincubated for 5 mins followed by NADPH addition and measured up to 120 mins by LC-MS/MS analysis; assay type: ADME, Microsome; settings: 2 h, time <=125 min
[21] = AUC (0 to t) in rat at 10 mg/kg, iv measured upto 24 hrs by LC-MS/MS analysis; assay type: ADME, organism-based; parameters: route intravenous, dose 10 mg/kg, time <=24; settings: in vivo
MKN-28 = test: Antiproliferative activity against human MKN-28 assessed as reduction in cell viability incubated for 72 hrs by MTT assay; assay type: functional, cell-based; settings: MKN-28, 72 h
CYP2C19 = CYP2C19 (Homo sapiens, UniProt P33261); test: Inhibition of CYP2C19 in human liver microsomes at 10 uM using mephenytoin as substrate preincubated for 5 mins followed by NADPH addition and measured after 20 mins by LC-MS/MS analysis relative to control; settings: probe mephenytoin
[22] = Apparent clearance during terminal phase in rat at 10 mg/kg, iv measured upto 24 hrs by LC-MS/MS analysis; assay type: ADME, organism-based; settings: in vivo
[23] = Apparent clearance during terminal phase in rat at 50 mg/kg, po measured upto 24 hrs by LC-MS/MS analysis; assay type: ADME, organism-based; settings: in vivo, read-out: CLz/F (converted)
[24] = Intrinsic aqueous solubility of the compound; assay type: physicochemical
K562 = test: Antiproliferative activity against human K562 assessed as reduction in cell viability incubated for 72 hrs by MTT assay; assay type: functional, cell-based; settings: K562, 72 h
[25] = Drug distribution in spleen of mouse xenografted with human HCT-116 cells at 60 mg/kg, iv by LC-MS/MS analysis; settings: in vivo
Endoplasmin = Endoplasmin (Homo sapiens, UniProt P14625); test: Displacement of FITC-geldanamycin from N-terminal GRP94 (unknown origin) after 30 mins by fluorescence polarization competitive binding assay
[26] = Half-life in rat at 10 mg/kg, iv measured upto 24 hrs by LC-MS/MS analysis; assay type: ADME, organism-based; settings: in vivo
BT-474 = test: Antiproliferative activity against human BT-474 assessed as reduction in cell viability incubated for 72 hrs by MTT assay; assay type: functional, cell-based; settings: BT-474, 72 h
HepG2 = test: Antiproliferative activity against human HepG2 assessed as reduction in cell viability incubated for 72 hrs by MTT assay; assay type: functional, cell-based; settings: HepG2, 72 h

Sequence of CYP2C9 (P11712 whole entry): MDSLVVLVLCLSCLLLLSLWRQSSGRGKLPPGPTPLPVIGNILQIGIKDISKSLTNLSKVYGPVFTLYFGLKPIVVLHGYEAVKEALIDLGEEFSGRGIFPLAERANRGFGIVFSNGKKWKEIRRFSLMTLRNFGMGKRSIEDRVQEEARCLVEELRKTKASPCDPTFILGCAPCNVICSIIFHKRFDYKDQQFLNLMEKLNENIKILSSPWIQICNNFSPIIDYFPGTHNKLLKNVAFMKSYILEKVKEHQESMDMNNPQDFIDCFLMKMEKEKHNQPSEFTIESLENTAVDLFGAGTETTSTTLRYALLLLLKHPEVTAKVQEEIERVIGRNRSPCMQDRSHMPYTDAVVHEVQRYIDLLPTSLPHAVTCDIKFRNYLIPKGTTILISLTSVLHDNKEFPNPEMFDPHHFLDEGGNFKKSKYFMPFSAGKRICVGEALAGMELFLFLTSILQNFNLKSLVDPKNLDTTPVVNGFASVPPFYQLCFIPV
Sequence of CYP2D6 (P10635 whole entry): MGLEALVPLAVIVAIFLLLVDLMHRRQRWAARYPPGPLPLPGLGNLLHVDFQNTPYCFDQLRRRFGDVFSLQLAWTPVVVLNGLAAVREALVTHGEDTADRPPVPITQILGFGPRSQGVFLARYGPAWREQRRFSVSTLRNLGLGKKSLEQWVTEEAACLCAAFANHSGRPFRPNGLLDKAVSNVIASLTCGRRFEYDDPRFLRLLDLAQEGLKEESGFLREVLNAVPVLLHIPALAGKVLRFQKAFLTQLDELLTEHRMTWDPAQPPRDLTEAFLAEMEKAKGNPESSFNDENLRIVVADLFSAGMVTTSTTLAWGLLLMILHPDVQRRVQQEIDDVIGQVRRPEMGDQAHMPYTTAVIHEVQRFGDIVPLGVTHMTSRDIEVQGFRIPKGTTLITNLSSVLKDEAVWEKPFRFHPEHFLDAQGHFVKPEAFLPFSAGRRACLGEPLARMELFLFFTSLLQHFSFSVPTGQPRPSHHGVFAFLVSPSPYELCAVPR
Sequence of CYP3A4 (P08684 whole entry): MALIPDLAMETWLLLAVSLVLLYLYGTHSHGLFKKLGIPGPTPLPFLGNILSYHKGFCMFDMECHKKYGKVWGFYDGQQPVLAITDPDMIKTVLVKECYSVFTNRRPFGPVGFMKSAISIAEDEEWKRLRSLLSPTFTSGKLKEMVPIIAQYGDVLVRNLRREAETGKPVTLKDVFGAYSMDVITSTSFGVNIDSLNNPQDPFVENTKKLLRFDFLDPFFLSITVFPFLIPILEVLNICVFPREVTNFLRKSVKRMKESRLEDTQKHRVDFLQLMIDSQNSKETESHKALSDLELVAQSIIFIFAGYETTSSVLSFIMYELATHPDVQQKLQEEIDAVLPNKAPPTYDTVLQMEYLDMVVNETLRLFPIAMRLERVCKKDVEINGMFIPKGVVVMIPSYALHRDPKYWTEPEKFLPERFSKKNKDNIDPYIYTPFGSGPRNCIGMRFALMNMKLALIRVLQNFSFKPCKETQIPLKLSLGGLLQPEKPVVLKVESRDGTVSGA
Sequence of CYP2C19 (P33261 whole entry): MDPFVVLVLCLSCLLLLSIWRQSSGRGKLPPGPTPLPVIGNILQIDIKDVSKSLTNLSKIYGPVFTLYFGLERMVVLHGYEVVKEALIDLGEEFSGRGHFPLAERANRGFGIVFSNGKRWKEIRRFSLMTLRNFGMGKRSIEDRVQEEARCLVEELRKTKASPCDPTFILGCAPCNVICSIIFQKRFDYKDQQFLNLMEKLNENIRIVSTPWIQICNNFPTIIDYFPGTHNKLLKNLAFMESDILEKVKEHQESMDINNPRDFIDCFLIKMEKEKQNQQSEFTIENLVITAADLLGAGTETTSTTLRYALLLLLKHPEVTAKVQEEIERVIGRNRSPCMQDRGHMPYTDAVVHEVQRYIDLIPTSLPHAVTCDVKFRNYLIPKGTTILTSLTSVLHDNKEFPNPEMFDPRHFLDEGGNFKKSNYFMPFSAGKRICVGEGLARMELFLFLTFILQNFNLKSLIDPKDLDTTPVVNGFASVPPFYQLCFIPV
Sequence of Endoplasmin (P14625 whole entry): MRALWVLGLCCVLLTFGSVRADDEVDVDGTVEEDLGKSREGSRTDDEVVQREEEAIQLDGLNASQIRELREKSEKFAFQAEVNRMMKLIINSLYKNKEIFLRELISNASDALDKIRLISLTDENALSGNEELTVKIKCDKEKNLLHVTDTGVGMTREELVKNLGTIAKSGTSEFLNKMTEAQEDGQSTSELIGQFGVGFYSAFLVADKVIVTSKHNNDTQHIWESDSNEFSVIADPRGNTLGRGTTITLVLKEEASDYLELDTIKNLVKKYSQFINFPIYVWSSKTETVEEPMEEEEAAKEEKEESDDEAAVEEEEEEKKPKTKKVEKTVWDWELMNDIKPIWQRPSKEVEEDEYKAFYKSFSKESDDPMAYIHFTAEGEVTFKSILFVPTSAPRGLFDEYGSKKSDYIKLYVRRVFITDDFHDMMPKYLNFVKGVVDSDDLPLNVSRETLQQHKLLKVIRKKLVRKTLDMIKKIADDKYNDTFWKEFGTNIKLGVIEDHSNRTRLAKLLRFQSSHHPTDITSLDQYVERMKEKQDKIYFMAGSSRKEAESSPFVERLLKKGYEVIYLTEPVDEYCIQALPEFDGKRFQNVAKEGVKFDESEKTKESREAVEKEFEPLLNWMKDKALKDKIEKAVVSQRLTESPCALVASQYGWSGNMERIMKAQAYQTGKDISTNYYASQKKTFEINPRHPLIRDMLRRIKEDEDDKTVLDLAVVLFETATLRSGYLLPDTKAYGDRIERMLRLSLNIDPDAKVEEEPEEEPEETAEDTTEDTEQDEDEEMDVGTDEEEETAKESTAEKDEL
Sequence of CYP1A2 (P05177 whole entry): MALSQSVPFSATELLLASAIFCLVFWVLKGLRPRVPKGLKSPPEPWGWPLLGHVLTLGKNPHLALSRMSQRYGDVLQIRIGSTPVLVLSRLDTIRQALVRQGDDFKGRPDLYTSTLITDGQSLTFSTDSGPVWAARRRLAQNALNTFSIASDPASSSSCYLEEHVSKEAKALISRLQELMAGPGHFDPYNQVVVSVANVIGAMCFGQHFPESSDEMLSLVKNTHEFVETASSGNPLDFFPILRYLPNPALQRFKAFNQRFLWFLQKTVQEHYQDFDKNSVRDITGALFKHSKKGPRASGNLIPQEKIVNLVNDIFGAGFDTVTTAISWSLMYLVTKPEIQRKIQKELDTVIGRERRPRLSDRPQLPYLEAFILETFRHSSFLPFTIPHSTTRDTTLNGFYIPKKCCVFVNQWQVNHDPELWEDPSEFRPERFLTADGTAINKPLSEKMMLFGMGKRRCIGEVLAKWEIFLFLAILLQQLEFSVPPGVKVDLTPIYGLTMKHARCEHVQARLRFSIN

CCNC(=O)c1noc(-c2cc(C(C)C)c(O)cc2O)c1-c1ccc(CN2CCOCC2)cc1 [LUMINESPIB]
inhibition (Rattus norvegicus [1]): Active
Activity [2]: Toxic
inhibition (Rattus norvegicus [3]): Active

CCNc1nc(OCCOC)nc2c1CN(C(=O)c1cc(C(C)C)c(O)cc1O)CC2
IC50 (U2OS): 52 nM
IC50 (MCF7): 100 nM
bioavailability [4]: 4.23%
AUC(0-t) at 24 h [5]: 409 ng·h/mL
IC50 (L02): 34000 nM
inhibition at 20 min, 10 µM (CYP2C9): 36%
IC50 (MDA-MB-468): 135 nM
Vd [6]: 29.6 L/kg
IC50 (MDA-MB-231): 119 nM
inhibition at 20 min, 10 µM (CYP1A2): 8%
Vz [7]: 1620.19 L/kg
IC50 (T47D): 195 nM
IC50 (A549): 194 nM
Papp [8]: 71.5 ×10⁻⁶ cm/s
Ct [9]: > 3 uM/L
CLint [10]: 4.45 mL/min/kg
half-life [11]: 9.4 h
Drug uptake [12]: Active
IC50 (HCT-116): 140 nM
Activity [13]: Non-Toxic
Tmax [14]: 0.5 h
Cmax [15]: 72.6 ng/mL
Drug uptake [16]: Active
inhibition at 20 min, 10 µM (CYP3A4): 22%
IC50 (MV4-11): 27 nM
inhibition at 20 min, 10 µM (CYP2D6): 48%
Stabilty [17]: 90.4%
IC50 (SK-BR-3): 243 nM
IC50 [18]: 28 nM
logD [19]: 2.32
t1/2 [20]: 3.53 h
AUC(0-t) at 24 h [21]: 1930 ng·h/mL
IC50 (MKN-28): 434 nM
inhibition at 20 min, 10 µM (CYP2C19): 21%
CLz/F [22]: 87.5 mL/min/kg
CL/F [23]: 2060 mL/min/kg
solubility [24]: 192 µg/mL (≈ 447 µM)
IC50 (K562): 119 nM
Drug uptake [25]: Active
IC50 (Endoplasmin): 729 nM
half-life [26]: 3.95 h
IC50 (BT-474): 95 nM
IC50 (HepG2): 153 nM

Reference: ChEMBL document CHEMBL4706476, “Novel Tetrahydropyrido[4,3-d]pyrimidines as Potent Inhibitors of Chaperone Heat Shock Protein 90” (J Med Chem, 2016)
